# Measurements published in PubChem BioAssay (NCI).
#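 Following 48 hours of exposure in 96-well plates, responses at five concentrations were used to interpolate endpoints linearly. GI50: concentration for 50% inhibition of growth. TGI marks complete inhibition of growth.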
# Tests used:
# Test in all cases: NCI-60 cell line screen, 48 h
# TK-10 renal = test system: TK-10 renal
# SK-MEL-5 melanoma = test system: SK-MEL-5 melanoma
# UACC-257 melanoma = test system: UACC-257 melanoma
# UACC-62 melanoma = test system: UACC-62 melanoma
# SF-295 CNS = test system: SF-295 CNS
# EKVX NSCLC = test system: EKVX NSCLC
# SF-539 CNS = test system: SF-539 CNS
# HCT-15 colon = test system: HCT-15 colon
# DU-145 prostate = test system: DU-145 prostate
# SK-OV-3 ovarian = test system: SK-OV-3 ovarian
smiles,measurement,setting,value
COc1ccc(-c2ccc(-c3ccc(C(=N)N)nc3)s2)cc1,GI50,TK-10 renal,1.89 µM
same,TGI,TK-10 renal,3.54 µM
same,GI50,SK-MEL-5 melanoma,1.79 µM
same,TGI,SK-MEL-5 melanoma,3.26 µM
same,GI50,UACC-257 melanoma,1.8 µM
same,TGI,UACC-257 melanoma,3.51 µM
same,GI50,UACC-62 melanoma,1.81 µM
same,TGI,UACC-62 melanoma,3.38 µM
same,GI50,SF-295 CNS,1.71 µM
same,TGI,SF-295 CNS,3.1 µM
same,GI50,EKVX NSCLC,1.7 µM
same,TGI,EKVX NSCLC,3.14 µM
same,GI50,SF-539 CNS,1.73 µM
same,TGI,SF-539 CNS,3.17 µM
same,GI50,HCT-15 colon,1.27 µM
same,TGI,HCT-15 colon,2.7 µM
same,GI50,DU-145 prostate,1.77 µM
same,TGI,DU-145 prostate,3.17 µM
same,GI50,SK-OV-3 ovarian,1.7 µM
same,TGI,SK-OV-3 ovarian,3.23 µM
